Laboratory results from ChEMBL document CHEMBL1150048, “Echinofuran, a New Furanosesquiterpene from the Gorgonian Echinogorgia praelonga” (J Nat Prod, 1992).
The source made the active and inactive calls. No cut-off for these calls is given here.

Legend:
Cladosporium = test: Antimicrobial activity against Cladosporium at 100 ug/8 mm disk; type: functional, organism-based
Aspergillus sp. = test: Antimicrobial activity against Aspergillus sp. at 100 ug/8 mm disk; type: functional, organism-based
[1] = Inhibition of cell division in sea urchin fertilized egg at 1 ug/ml; conditions: echinoidea, fertilized sea urchin eggs
Staphylococcus aureus = test: Antimicrobial activity against Staphylococcus aureus at 100 ug/8 mm disk; type: functional, organism-based
Bacillus subtilis = test: Antimicrobial activity against Bacillus subtilis at 100 ug/8 mm disk; type: functional, organism-based
Escherichia coli = test: Antimicrobial activity against Escherichia coli at 100 ug/8 mm disk; type: functional, organism-based
Poecilia reticulata = test: Ichthyotoxicity against Poecilia reticulata up to 10 ppm; type: organism-based; conditions: in vivo

**Q.** Which Activity (Cladosporium) does the source give for `C=C1CCC2=C(C)Cc3occ(C)c3C[C@@H]12` [ECHINOFURAN] here?
**A.** inactive

**Q.** And the Activity (Aspergillus sp.)?
**A.** inactive

**Q.** And the inhibition at 1 ug/ml [1]?
**A.** 90%

**Q.** And the Activity (Staphylococcus aureus)?
**A.** inactive

**Q.** And the Activity (Bacillus subtilis)?
**A.** inactive

**Q.** And the Activity (Escherichia coli)?
**A.** inactive

**Q.** And the Activity (Poecilia reticulata)?
**A.** Non-toxic
